Laboratory results: ChEMBL document CHEMBL5120881, “Silencing Tautomerization to Isolate Unstable Physalins from Physalis minima” (J Nat Prod, 2022)

What was measured:
[1] = Cytotoxicity against mouse RAW264.7 cells assessed as reduction in cell viability incubated for 48 hrs by CCK8 assay; type: toxicity, cell-based
SGC-7901 = experiment: Antiproliferative activity against human SGC-7901 cells assessed as reduction in cell viability incubated for 48 hrs by CCK8 assay; type: functional, cell-based; conditions: SGC-7901, 48 h
[2] = Cytotoxicity against human L02 cells assessed as reduction in cell viability incubated for 48 hrs by CCK8 assay; type: toxicity, cell-based
MCF7 = experiment: Antiproliferative activity against human MCF7 cells assessed as reduction in cell viability incubated for 48 hrs by CCK8 assay; type: functional, cell-based; conditions: MCF7, 48 h
A549 = experiment: Antiproliferative activity against human A549 cells assessed as reduction in cell viability incubated for 48 hrs by CCK8 assay; type: functional, cell-based; conditions: A549, 48 h
RAW264.7 = experiment: Antiinflammatory activity in mouse RAW264.7 assessed as inhibition of LPS-stimulated NO production pretreated with LPS followed by compund addition by Griess reagent based microplate reader assay; type: functional, cell-based; conditions: for IC50: Mus musculus, RAW264.7
HepG2 = experiment: Antiproliferative activity against human HepG2 cells assessed as reduction in cell viability incubated for 48 hrs by CCK8 assay; type: functional, cell-based; conditions: HepG2, 48 h
[3] = Cytotoxicity against human L02 cells assessed as cell viability at 10 uM incubated for 48 hrs by CCK8 assay; type: toxicity, cell-based; conditions: read-out: Activity
[4] = Cytotoxicity against mouse RAW264.7 cells assessed as cell viability at 10 uM incubated for 48 hrs by CCK8 assay; type: toxicity, cell-based; conditions: read-out: Activity

C=C1C(=O)O[C@@H]2C[C@@]1(C)[C@@H]1C(=O)[C@@]3(O)O[C@]14[C@@]2(C)OC(=O)[C@@]4(O)CC[C@H]1[C@H]3[C@H](O)C=C2CC=CC(=O)[C@@]21C
IC50 at 48 h [1]: > 50 µM | IC50 (SGC-7901): > 50 µM | IC50 at 48 h [2]: > 50 µM | IC50 (MCF7): > 50 µM | IC50 (A549): > 50 µM | IC50 (RAW264.7): 9.5 µM | IC50 (HepG2): > 50 µM

C[C@@]12C[C@H]3OC(=O)[C@@H]1CO[C@@]14O[C@@]5([C@H]2C1=O)[C@@]3(C)OC(=O)[C@@]5(O)CC[C@H]1[C@H]4C[C@H](O)[C@]2(O)CC=CC(=O)[C@]12C
IC50 at 48 h [1]: > 50 µM | IC50 (SGC-7901): > 50 µM | IC50 at 48 h [2]: > 50 µM | IC50 (MCF7): > 50 µM | IC50 (A549): > 50 µM | IC50 (RAW264.7): 43.8 µM | IC50 (HepG2): > 50 µM

C=C1C(=O)O[C@@H]2C[C@@]1(C)[C@@H]1C(=O)[C@@]3(O)O[C@]14[C@@]2(C)OC(=O)[C@@]4(O)CC[C@H]1[C@H]3C[C@@H](O)[C@@]2(Cl)CC=CC(=O)[C@]12C
viability at 48 h, 10 µM [3]: 98.1% | IC50 (SGC-7901): 1.1 µM | viability at 48 h, 10 µM [4]: 90.1% | IC50 (MCF7): 2.1 µM | IC50 (A549): 2 µM | inhibition (INH) (RAW264.7): <50% | IC50 (HepG2): 4.9 µM

C[C@@]12C[C@H]3OC(=O)[C@@H]1CO[C@@]14O[C@]56[C@H]2[C@]1(O)[C@H](C[C@]5(O)C(=O)O[C@@]36C)[C@H]1[C@H]4CC[C@]2(O)CC=CC(=O)[C@]12C
IC50 at 48 h [1]: > 50 µM | IC50 (SGC-7901): > 50 µM | IC50 at 48 h [2]: > 50 µM | IC50 (MCF7): > 50 µM | IC50 (A549): > 50 µM | IC50 (RAW264.7): 3.6 µM | IC50 (HepG2): > 50 µM

C[C@]12C(=O)CC=CC1=CC[C@@H]1[C@@H]2CC[C@]2(O)C(=O)O[C@@]3(C)[C@H]4C[C@@]5(C)[C@@H]6C(=O)[C@@]1(OC[C@@]5(O)C(=O)O4)O[C@@]632
IC50 at 48 h [1]: > 50 µM | IC50 (SGC-7901): > 50 µM | IC50 at 48 h [2]: > 50 µM | IC50 (MCF7): > 50 µM | IC50 (A549): > 50 µM | IC50 (RAW264.7): 17.5 µM | IC50 (HepG2): > 50 µM

COC(=O)C(C)(O)[C@@]1(C)C[C@@H](O)[C@]2(C)OC(=O)[C@@]3(O)CC[C@H]4[C@@H](C[C@@H](O)[C@@]5(O)CC=CC(=O)[C@]45C)[C@]4(O)O[C@@]23[C@H]1C4=O (stereo not given in full)
IC50 at 48 h [1]: > 50 µM | IC50 (SGC-7901): > 50 µM | IC50 at 48 h [2]: > 50 µM | IC50 (MCF7): > 50 µM | IC50 (A549): > 50 µM | IC50 (RAW264.7): 2.9 µM | IC50 (HepG2): > 50 µM

C[C@]12OC(=O)[C@@]3(O)CC[C@H]4[C@@H](C[C@@H](O)[C@]5(O)CC=CC(=O)[C@]45C)[C@@]45OC[C@H]6C(=O)O[C@@H]1C[C@@]6(CO)[C@H](C4=O)[C@]23O5
IC50 at 48 h [1]: > 50 µM | IC50 (SGC-7901): > 50 µM | IC50 at 48 h [2]: > 50 µM | IC50 (MCF7): > 50 µM | IC50 (A549): > 50 µM | IC50 (RAW264.7): 43.2 µM | IC50 (HepG2): > 50 µM

C[C@]12C(=O)C=CCC1=CC[C@@H]1[C@@H]2CC[C@]2(O)C(=O)O[C@@]3(C)[C@H]4C[C@@]5(C)[C@@H]6C(=O)[C@@]1(OC[C@@]5(O)C(=O)O4)O[C@@]632
viability at 48 h, 10 µM [3]: 97.3% | IC50 (SGC-7901): 12.1 µM | viability at 48 h, 10 µM [4]: 95.5% | IC50 (MCF7): 10.5 µM | IC50 (A549): 12.2 µM | IC50 (HepG2): 16.8 µM

C[C@@]12C[C@H]3OC(=O)[C@@H]1CO[C@@]14O[C@@]5([C@H]2C1=O)[C@@]3(C)OC(=O)[C@@]5(O)CC[C@H]1[C@H]4C[C@@H](O)[C@@]2(OC(=O)c3cccnc3)CC=CC(=O)[C@]12C
IC50 at 48 h [1]: > 50 µM | IC50 (SGC-7901): > 50 µM | IC50 at 48 h [2]: > 50 µM | IC50 (MCF7): > 50 µM | IC50 (A549): > 50 µM | IC50 (RAW264.7): 13.6 µM | IC50 (HepG2): > 50 µM

COC(=O)C[C@@H](O)C(=O)O[C@]12CC=CC(=O)[C@]1(C)[C@H]1CC[C@]3(O)C(=O)O[C@@]4(C)[C@H]5C[C@]6(C)[C@@H](CO[C@]7(O[C@@]43[C@H]6C7=O)[C@@H]1C[C@H]2O)C(=O)O5
IC50 at 48 h [1]: > 50 µM | IC50 (SGC-7901): > 50 µM | IC50 at 48 h [2]: > 50 µM | IC50 (MCF7): > 50 µM | IC50 (A549): > 50 µM | IC50 (RAW264.7): 32.3 µM | IC50 (HepG2): > 50 µM

C[C@@]12C[C@H]3OC(=O)[C@@H]1CO[C@@]14O[C@]56[C@H]2[C@]1(O)[C@H](C[C@]5(O)C(=O)O[C@@]36C)[C@H]1[C@H]4CC(O)[C@]2(O)CC=CC(=O)[C@]12C (stereo not given in full)
IC50 at 48 h [1]: > 50 µM | IC50 (SGC-7901): > 50 µM | IC50 at 48 h [2]: > 50 µM | IC50 (MCF7): > 50 µM | IC50 (A549): > 50 µM | IC50 (RAW264.7): 9 µM | IC50 (HepG2): > 50 µM

C[C@]12C(=O)C=CC=C1[C@@H](O)C[C@@H]1[C@@H]2CC[C@@]2(O)C(=O)O[C@@]3(C)[C@H]4C[C@]5(C)[C@@H](CO[C@@]16O[C@]23[C@H]5C6=O)C(=O)O4 [PHYSALIN G]
IC50 at 48 h [1]: > 50 µM | IC50 (SGC-7901): > 50 µM | IC50 at 48 h [2]: > 50 µM | IC50 (MCF7): > 50 µM | IC50 (A549): > 50 µM | IC50 (RAW264.7): 13.5 µM | IC50 (HepG2): > 50 µM

O=C(CCCCCCC(=O)Nc1ccccc1)NO [VORINOSTAT]
viability at 48 h, 10 µM [3]: 92.5% | viability at 48 h, 10 µM [4]: 87%
